Experiments:
Type in all cases: functional
[1] = test system: ACHN; assay: Anticancer activity against human ACHN cells assessed cell growth at 10 uM after 48 hrs by sulforhodamine B assay relative to control
[2] = test system: RXF 393; assay: Anticancer activity against human RXF393 cells assessed cell growth at 10 uM after 48 hrs by sulforhodamine B assay relative to control
[3] = test system: DU-145; assay: Anticancer activity against human DU145 cells assessed cell growth at 10 uM after 48 hrs by sulforhodamine B assay relative to control
[4] = test system: MCF7; assay: Anticancer activity against human MCF7 cells assessed cell growth at 10 uM after 48 hrs by sulforhodamine B assay relative to control
[5] = test system: MDA-MB-435; assay: Anticancer activity against human MDA-MB-435 cells assessed cell growth at 10 uM after 48 hrs by sulforhodamine B assay relative to control
[6] = test system: SR; assay: Anticancer activity against human SR cells after 48 hrs by sulforhodamine B assay; conditions: for CC50: read-out: LC50 (the source's name)
[7] = test system: HOP-62; assay: Anticancer activity against human HOP62 cells after 48 hrs by sulforhodamine B assay
[8] = test system: HOP-92; assay: Anticancer activity against human HOP92 cells after 48 hrs by sulforhodamine B assay
[9] = test system: NCI-H226; assay: Anticancer activity against human NCI-H226 cells after 48 hrs by sulforhodamine B assay
[10] = test system: NCI-H23; assay: Anticancer activity against human NCI-H23 cells after 48 hrs by sulforhodamine B assay
[11] = test system: NCI-H460; assay: Anticancer activity against human NCI-H460 cells after 48 hrs by sulforhodamine B assay
[12] = test system: COLO 205; assay: Anticancer activity against human COLO205 cells after 48 hrs by sulforhodamine B assay
[13] = test system: HCC 2998; assay: Anticancer activity against human HCC2998 cells after 48 hrs by sulforhodamine B assay
[14] = test system: HCT-116; assay: Anticancer activity against human HCT116 cells after 48 hrs by sulforhodamine B assay
[15] = test system: KM12; assay: Anticancer activity against human KM12 cells after 48 hrs by sulforhodamine B assay; conditions: for CC50: read-out: LC50 (the source's name)
[16] = test system: SW-620; assay: Anticancer activity against human SW620 cells after 48 hrs by sulforhodamine B assay
[17] = test system: SF-295; assay: Anticancer activity against human SF295 cells after 48 hrs by sulforhodamine B assay
[18] = test system: SNB-75; assay: Anticancer activity against human SNB75 cells after 48 hrs by sulforhodamine B assay; conditions: for CC50: read-out: LC50 (the source's name)
[19] = test system: U-251; assay: Anticancer activity against human U251 cells after 48 hrs by sulforhodamine B assay
[20] = test system: K562; assay: Anticancer activity against human K562 cells assessed cell growth at 10 uM after 48 hrs by sulforhodamine B assay relative to control
[21] = test system: MOLT-4; assay: Anticancer activity against human MOLT4 cells assessed cell growth at 10 uM after 48 hrs by sulforhodamine B assay relative to control
[22] = test system: SR; assay: Anticancer activity against human SR cells assessed cell growth at 10 uM after 48 hrs by sulforhodamine B assay relative to control
[23] = test system: NCI-H226; assay: Anticancer activity against human NCI-H226 cells assessed cell growth at 10 uM after 48 hrs by sulforhodamine B assay relative to control
[24] = test system: SW-620; assay: Anticancer activity against human SW620 cells assessed cell growth at 10 uM after 48 hrs by sulforhodamine B assay relative to control
[25] = test system: SF-268; assay: Anticancer activity against human SF268 cells assessed cell growth at 10 uM after 48 hrs by sulforhodamine B assay relative to control
[26] = test system: Malme-3M; assay: Anticancer activity against human MALME-3M cells assessed cell growth at 10 uM after 48 hrs by sulforhodamine B assay relative to control
[27] = test system: HL-60(TB); assay: Anticancer activity against human HL-60(TB) cells assessed cell growth at 10 uM after 48 hrs by sulforhodamine B assay relative to control
[28] = test system: M14; assay: Anticancer activity against human M14 cells after 48 hrs by sulforhodamine B assay
[29] = test system: UACC-257; assay: Anticancer activity against human UACC257 cells after 48 hrs by sulforhodamine B assay
[30] = test system: OVCAR-3; assay: Anticancer activity against human OVCAR-3 cells after 48 hrs by sulforhodamine B assay
[31] = test system: OVCAR-8; assay: Anticancer activity against human OVCAR8 cells after 48 hrs by sulforhodamine B assay
[32] = test system: SK-OV-3; assay: Anticancer activity against human SKOV3 cells after 48 hrs by sulforhodamine B assay
[33] = test system: A498; assay: Anticancer activity against human A498 cells after 48 hrs by sulforhodamine B assay
[34] = test system: RXF 393; assay: Anticancer activity against human RXF393 cells after 48 hrs by sulforhodamine B assay
[35] = test system: SN12C; assay: Anticancer activity against human SN12C cells after 48 hrs by sulforhodamine B assay
[36] = test system: TK-10; assay: Anticancer activity against human TK10 cells after 48 hrs by sulforhodamine B assay
[37] = test system: UO-31; assay: Anticancer activity against human UO31 cells after 48 hrs by sulforhodamine B assay
[38] = test system: PC-3; assay: Anticancer activity against human PC3 cells after 48 hrs by sulforhodamine B assay
[39] = test system: DU-145; assay: Anticancer activity against human DU145 cells after 48 hrs by sulforhodamine B assay
[40] = test system: MCF7; assay: Anticancer activity against human MCF7 cells after 48 hrs by sulforhodamine B assay
[41] = test system: MDA-MB-468; assay: Anticancer activity against human MDA-MB-468 cells after 48 hrs by sulforhodamine B assay
[42] = test system: CCRF-CEM; assay: Anticancer activity against human CCRF-CEM cells assessed cell growth at 10 uM after 48 hrs by sulforhodamine B assay relative to control

Work on `CCCCCCCCCCCC[n+]1ccn(C)c1.F[B-](F)(F)F` yielded an Activity [1] of 54.07%, an Activity [2] of 22.19% and an Activity [3] of 7.97%. For the same compound, the Activity [4] was -1.79%, the Activity [5] was 20.42% and the GI50 [6] was 1.06 µM. The CC50 [6] was greater than 100 µM, the GI50 [7] was 9.48 µM and the GI50 [8] was 7.84 µM. The GI50 [9] was 4.62 µM, the GI50 [10] was 2.44 µM and the GI50 [11] was 4.29 µM. For the same compound, the GI50 [12] was 3.41 µM, the GI50 [13] was 4.18 µM and the GI50 [14] was 2.36 µM. It also gave a GI50 [15] of 1.85 µM, a CC50 [15] of 23 µM and a GI50 [16] of 7.25 µM. It also gave a GI50 [17] of 2.93 µM, a GI50 [18] of 3.71 µM and a CC50 [18] of 90.3 µM. The GI50 [19] was 2.81 µM, the Activity [20] was 80.69% and the Activity [21] was 71.98%. For the same compound, the Activity [22] was 100.03%, the Activity [23] was 37.19% and the Activity [24] was 54.63%. It also gave an Activity [25] of 66.79%, an Activity [26] of 31.87% and an Activity [27] of 50.79%. The GI50 [28] was 4.15 µM, the GI50 [29] was 3.06 µM and the GI50 [30] was 3.33 µM. The GI50 [31] was 3.25 µM, the GI50 [32] was 5.97 µM and the GI50 [33] was 7.53 µM. It also gave a GI50 [34] of 6.52 µM, a GI50 [35] of 3.35 µM and a GI50 [36] of 2.04 µM. For the same compound, the GI50 [37] was 15.9 µM, the GI50 [38] was 2.08 µM and the GI50 [39] was 10.9 µM. It also gave a GI50 [40] of 1.95 µM, a GI50 [41] of 0.556 µM and an Activity [42] of 96%.

Work on `CCCCCCCCCCCCCCCCCC[n+]1ccn(C)c1.FC(F)(F)C(F)(F)[P-](F)(F)(F)(C(F)(F)C(F)(F)F)C(F)(F)C(F)(F)F` yielded an Activity [1] of -53.6%, an Activity [2] of -44.46% and an Activity [3] of 7.06%. It also gave an Activity [4] of 2.61%, an Activity [5] of -52.89% and a GI50 ([6]; Homo sapiens, SR, 48 h) of 3.37 µM. The CC50 ([6]; Homo sapiens, SR, 48 h) was greater than 100 µM, the GI50 ([7]; Homo sapiens, HOP-62, 48 h) was 0.39 µM and the CC50 ([7]; Homo sapiens, HOP-62, 48 h, read-out: LC50 (the source's name)) was 6.09 µM. The GI50 ([8]; Homo sapiens, HOP-92, 48 h) was 0.211 µM, the CC50 ([8]; Homo sapiens, HOP-92, 48 h, read-out: LC50 (the source's name)) was 22 µM and the GI50 ([9]; Homo sapiens, NCI-H226, 48 h) was 0.435 µM. It also gave an LC50 ([9]; Homo sapiens, NCI-H226, 48 h) of 8.23 µM, a GI50 ([10]; Homo sapiens, NCI-H23, 48 h) of 0.224 µM and a CC50 ([10]; Homo sapiens, NCI-H23, 48 h, read-out: LC50 (the source's name)) of 12.7 µM. For the same compound, the GI50 ([11]; Homo sapiens, NCI-H460, 48 h) was 0.323 µM, the LC50 ([11]; Homo sapiens, NCI-H460, 48 h) was 4.85 µM and the GI50 ([12]; Homo sapiens, COLO 205, 48 h) was 0.196 µM. For the same compound, the CC50 ([12]; Homo sapiens, COLO 205, 48 h, read-out: LC50 (the source's name)) was 0.778 µM, the GI50 ([13]; Homo sapiens, HCC 2998, 48 h) was 0.271 µM and the CC50 ([13]; Homo sapiens, HCC 2998, 48 h, read-out: LC50 (the source's name)) was 25.5 µM. For the same compound, the GI50 ([14]; Homo sapiens, HCT-116, 48 h) was 0.294 µM, the CC50 ([14]; Homo sapiens, HCT-116, 48 h, read-out: LC50 (the source's name)) was greater than 100 µM and the GI50 ([15]; Homo sapiens, KM12, 48 h) was 0.214 µM. The CC50 ([15]; Homo sapiens, KM12, 48 h) was 0.929 µM, the GI50 ([16]; Homo sapiens, SW-620, 48 h) was 0.328 µM and the LC50 ([16]; Homo sapiens, SW-620, 48 h) was 3.74 µM. The GI50 ([17]; Homo sapiens, SF-295, 48 h) was 0.275 µM, the CC50 ([17]; Homo sapiens, SF-295, 48 h, read-out: LC50 (the source's name)) was 5.77 µM and the GI50 ([18]; Homo sapiens, SNB-75, 48 h) was 0.419 µM. For the same compound, the CC50 ([18]; Homo sapiens, SNB-75, 48 h) was greater than 100 µM, the GI50 ([19]; Homo sapiens, U-251, 48 h) was 0.322 µM and the CC50 ([19]; Homo sapiens, U-251, 48 h, read-out: LC50 (the source's name)) was 3.7 µM. It also gave an Activity [20] of 26.87%, an Activity [21] of 17.16% and an Activity [22] of 24.53%. The Activity [23] was -58.27%, the Activity [24] was -25.6% and the Activity [25] was -47.08%. The Activity [26] was -51.72%, the Activity [27] was 15.34% and the GI50 ([28]; Homo sapiens, M14, 48 h) was 0.402 µM. It also gave an LC50 (50% lethal concentration) ([28]; Homo sapiens, M14, 48 h) greater than 100 µM, a GI50 ([29]; Homo sapiens, UACC-257, 48 h) of 0.523 µM and an LC50 ([29]; Homo sapiens, UACC-257, 48 h) of 9.71 µM. It also gave a GI50 ([30]; Homo sapiens, OVCAR-3, 48 h) of 0.316 µM, an LC50 (50% lethal concentration) ([30]; Homo sapiens, OVCAR-3, 48 h) of 3.79 µM and a GI50 ([31]; Homo sapiens, OVCAR-8, 48 h) of 0.491 µM. The LC50 ([31]; Homo sapiens, OVCAR-8, 48 h) was greater than 100 µM, the GI50 ([32]; Homo sapiens, SK-OV-3, 48 h) was 0.355 µM and the CC50 ([32]; Homo sapiens, SK-OV-3, 48 h, read-out: LC50 (the source's name)) was 3.83 µM. The GI50 ([33]; Homo sapiens, A498, 48 h) was 0.371 µM, the CC50 ([33]; Homo sapiens, A498, 48 h, read-out: LC50 (the source's name)) was 3.39 µM and the GI50 ([34]; Homo sapiens, RXF 393, 48 h) was 0.93 µM. It also gave an LC50 ([34]; Homo sapiens, RXF 393, 48 h) of 8.31 µM, a GI50 ([35]; Homo sapiens, SN12C, 48 h) of 0.353 µM and an LC50 ([35]; Homo sapiens, SN12C, 48 h) of 4.18 µM. It also gave a GI50 ([36]; Homo sapiens, TK-10, 48 h) of 0.31 µM, an LC50 ([36]; Homo sapiens, TK-10, 48 h) of 4.12 µM and a GI50 ([37]; Homo sapiens, UO-31, 48 h) of 0.365 µM. It also gave an LC50 ([37]; Homo sapiens, UO-31, 48 h) of 5.31 µM, a GI50 ([38]; Homo sapiens, PC-3, 48 h) of 0.276 µM and a CC50 ([38]; Homo sapiens, PC-3, 48 h, read-out: LC50 (the source's name)) of 8.03 µM. It also gave a GI50 ([39]; Homo sapiens, DU-145, 48 h) of 0.495 µM, a CC50 ([39]; Homo sapiens, DU-145, 48 h, read-out: LC50 (the source's name)) of 4.43 µM and a GI50 ([40]; Homo sapiens, MCF7, 48 h) of 0.309 µM. The LC50 (50% cell kill) ([40]; Homo sapiens, MCF7, 48 h) was 4.69 µM, the GI50 ([41]; Homo sapiens, MDA-MB-468, 48 h) was 0.173 µM and the LC50 ([41]; Homo sapiens, MDA-MB-468, 48 h) was greater than 100 µM. For the same compound, the Activity [42] was 35.34%.

Reference: ChEMBL document CHEMBL1153245, “A profile of the in vitro anti-tumor activity of imidazolium-based ionic liquids” (2010)
